According to US20050245508A1, “Treatment of malignant gliomas with TGF-beta inhibitors” (SCIOS, Inc., priority 2003, published 2005):

Test system: CCL64 mink lung epithelial cells
Assay: CCL64 TGF-β bioassay (growth, crystal violet)
Assay type: cell-based
Conditions: human TGF-β1 and TGF-β2
Experimental: FIG. 1. Prevention of the growth inhibitory effects of recombinant and glioma-derived TGF-b1 and TGF-b2 by a TGF-β inhibitor (Compound No. 79 in Table 2). A. CCL64 cells were exposed to human recombinant TGF-b1 (filled symbols) or TGF-b2 (open symbols) (10 ng/ml) in the absence or presence of increasing concentrations of Comopund No. 79 for 72 h. B. CCL64 cells were maintained in serum-free medium containing heat-activated glioma cell SN (1:1) in the absence or presence of Compound No. 79 for 72 h. Growth was assessed by crystal violet assay (mean and SD, n=3).
The levels of bioactive TGF-β were determined using the CCL64 bioassay. Briefly, […] CCL64 cells were adhered to 96 well plates for 24 h, full medium was replaced by serum-free medium, and the cells were exposed to recombinant TGF-β1/2 or glioma cell culture supernatants diluted in serum-free medium for 72 h. Growth was assessed by crystal violet staining at 72 h. Glioma cell supernatants were harvested from confluent cultures maintained for 48 h in serum-free medium and heat-treated (5 min, 85° C.) to activate latent TGF-β (Leitlein et al., J. Immunol., 166:7238-7243 (2001)).

Substance | EC50 of growth inhibitory effect on CCL64 cells [ng/mL]
TGF-β1: "Human recombinant TGF-β1 and TGF-β2 were obtained from Peprotech (London, UK)" | 0.5
TGF-β2: "Human recombinant TGF-β1 and TGF-β2 were obtained from Peprotech (London, UK)" | 0.5
